Reference: PMC5413906, “Structural and functional analysis of Oceanobacillus iheyensis macrodomain reveals a network of waters involved in substrate binding and catalysis” (Open Biology, 2017)
Blank lines part the entries; values can stand above or below the compound they belong to.

How the values were obtained:
Format in all cases: binding
OiMacroD [1] = biological target: T1, OiMacroD (Oceanobacillus iheyensis, UniProt Q8EP31); assay: thermal shift, SYPRO Orange; details: 50 mM sodium phosphate pH 7.0, 1 mM ligand; without ligand Tm = 41.7 ± 0.2 °C
T1 construct: gene OB2288

OiMacroD [2] = biological target: T2, OiMacroD (Oceanobacillus iheyensis, UniProt Q8EP31, G37V); assay: X-ray crystal structure, […] Å; details: crystal soaked with 20 mM ADPr; active site
T2 construct: gene OB2288

OiMacroD [3] = biological target: T1, OiMacroD; assay: X-ray crystal structure, […] Å; details: crystal soaked with 20 mM ADPr; active site
OiMacroD [4] = biological target: T1, OiMacroD; assay: X-ray crystal structure, […] Å; details: crystal soaked with 20 mM ADP; active site, two alternative conformations
OiMacroD [5] = biological target: T1, OiMacroD; assay: thermal shift, SYPRO Orange; details: 50 mM sodium phosphate pH 7.0, 1 mM ligand; without ligand Tm = 41.7 ± 0.2 °C; remark: listed apart in the source
OiMacroD [6] = biological target: T1, OiMacroD; assay: thermal shift, SYPRO Orange; details: 50 mM sodium phosphate pH 7.0, 1 mM ligand; without ligand Tm = 41.7 ± 0.2 °C; remark: listed apart in the source

T1 sequence (Q8EP31 entry or part of it): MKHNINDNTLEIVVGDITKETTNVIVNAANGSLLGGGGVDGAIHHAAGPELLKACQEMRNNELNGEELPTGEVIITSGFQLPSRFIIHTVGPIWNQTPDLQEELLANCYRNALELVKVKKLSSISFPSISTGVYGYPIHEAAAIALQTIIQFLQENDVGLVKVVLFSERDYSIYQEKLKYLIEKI
T2 sequence (Q8EP31 entry or part of it G37V): as the sequence (Q8EP31 entry or part of it) above, with G37V counted along it

Tm with 1 mM ADPr (OiMacroD [1]): 47.8 ± 0.1 °C
X-ray crystal structure, 1.35 Å (OiMacroD [2]): OiMacroD G37V (ADPr) (5LAU)
X-ray crystal structure, 1.77 Å (OiMacroD [3]): OiMacroD-ADPr (5L9K)
Structure (SMILES): Nc1ncnc2c1ncn2[C@@H]1O[C@H](COP(=O)(O)OP(=O)(O)OC[C@H]2OC(O)[C@H](O)[C@@H]2O)[C@@H](O)[C@H]1O (stereo partly drawn) [ADP-ribose]

X-ray crystal structure, 1.75 Å (OiMacroD [4]): OiMacroD-ADP (5L9Q)
Tm with 1 mM ADP (OiMacroD [5]): 44.0 ± 0.2 °C
Structure (SMILES): Nc1ncnc2c1ncn2[C@@H]1O[C@H](COP(=O)(O)OP(=O)(O)O)[C@@H](O)[C@H]1O [ADP]

Tm with 1 mM AMP (OiMacroD [6]): 43.3 ± 0.1 °C
Structure (SMILES): Nc1ncnc2c1ncn2[C@@H]1O[C@H](COP(=O)(O)O)[C@@H](O)[C@H]1O [AMP]
